Each compound was assayed against T1, PI3Kγ (p101/p110γ protein) (Homo sapiens, UniProt P48736) (assay: PI3Kγ In Vitro Kinase Assay). Settings: purified recombinant p101/p110γ with G protein β1/γ2 subunits; 20 μM ATP, 25 μM PIP2; 20 minutes at room temperature.
T1 construct: HA; made in house; host or cells: Spodoptera frugiperda (Sf9) cells, baculovirus co-infection
Format: biochemical
Experimental: Spodtera frugiperda cells, grown in ESF921 media, were coinfected with baculovirus expressing a glu-tagged p101 and baculovirus expressing an HA-tagged p110γ, at a 3:1 ratio of p101 baculovirus to p110γ baculovirus. Sf9 cells were grown to 1×10^7 total cells/mL in 10L bioreactors and harvested 48-72 hours post infection. Samples of infected cells were then tested for expression of p101/p110γ PI3 kinase by immunoprecipitation and Western Blot analysis methods (see below). […] NaCl was added to 150 mM, and sodium cholate was added to 1% and mixed for another 45 minutes. The lysates were clarified by centrifugation for 25 minutes at 14,000 rpm. The lysates were then loaded over anti-glu-linked Protein-G Sepaharose beads (Covance Research Products, Richmond, Calif.) using 20 mL resin/50 g cell paste. […] PI3Kγ was eluted with 6 column volumes of wash buffer that contain 100 μg/mL of a peptide that competes for binding of the glu tag. […] The fractions were stored at -80° C. until further use. Spodtera frugiperda cells were coinfected with baculovirus expressing a glu-tagged G protein β1 and baculovirus expressing a G protein […] at a 1:1 ratio of glu-tagged G protein β1 baculovirus to G protein β2 baculovirus. Sf9 cells are grown in 10 L bioreactors and harvested 48-72 hours post infection. Samples of infected cells were tested for G protein β1/β2 expression by Western Blot analysis, as described below. Cell lysates were homogenized and loaded onto a column of glu-tagged beads as in Biological Example 1 and competed off the column with a glu peptide as described in Biological Example 1. The inhibitory properties of the compounds in Table 1 were assayed in an in vitro PI3K assay. In a 96-well polypropylene plate, each well was spotted with 2 μL of […] the desired final concentration of compound in DMSO. Purified recombinant p101/p110γ protein (0.03 μg; 2.7 nM) and G protein β1/γ2 subunits (0.09 μg; 57.7 nM) for each reaction was combined in the assay buffer (30 mM HEPES, 100 mM NaCl, 1 mM EGTA, and 1 mM DTT). ATP and [γ-^32P-ATP] (0.09 μCi) were added to this mixture so that the final ATP concentration in the reaction was 20 μM. Lipid micelles were formed by sonicating phosphatidylinositol-4,5-diphosphate (PIP2), phosphatidylethanolamine (PE), and Na-cholate in the assay buffer for 10 minutes, adding MgCL2 and incubating on ice for 20 minutes, for final concentrations of 25 μM PIP2, 300 [M PE, 0.02% Na-cholate, and 10 mM MgCl2 in the reaction. The reactions were started by adding equal volumes lipid and enzyme mixture in a total volume of 50 μL, allowed to run for 20 minutes at room temperature, and stopped with 100 μL 75 mM H3PO4. The lipid product was transferred to a glass fiber filter plate and washed with 75 mM H3PO4 several times. The presence of radioactive lipid product (PIP3) was measured by adding Wallac Optiphase mix to each well and counting in a Wallac 1450 Trilux plate reader (PerkinElmer Life Sciences Inc., Boston, Mass. 02118).

T1 sequence (P48736 whole entry, species assumed): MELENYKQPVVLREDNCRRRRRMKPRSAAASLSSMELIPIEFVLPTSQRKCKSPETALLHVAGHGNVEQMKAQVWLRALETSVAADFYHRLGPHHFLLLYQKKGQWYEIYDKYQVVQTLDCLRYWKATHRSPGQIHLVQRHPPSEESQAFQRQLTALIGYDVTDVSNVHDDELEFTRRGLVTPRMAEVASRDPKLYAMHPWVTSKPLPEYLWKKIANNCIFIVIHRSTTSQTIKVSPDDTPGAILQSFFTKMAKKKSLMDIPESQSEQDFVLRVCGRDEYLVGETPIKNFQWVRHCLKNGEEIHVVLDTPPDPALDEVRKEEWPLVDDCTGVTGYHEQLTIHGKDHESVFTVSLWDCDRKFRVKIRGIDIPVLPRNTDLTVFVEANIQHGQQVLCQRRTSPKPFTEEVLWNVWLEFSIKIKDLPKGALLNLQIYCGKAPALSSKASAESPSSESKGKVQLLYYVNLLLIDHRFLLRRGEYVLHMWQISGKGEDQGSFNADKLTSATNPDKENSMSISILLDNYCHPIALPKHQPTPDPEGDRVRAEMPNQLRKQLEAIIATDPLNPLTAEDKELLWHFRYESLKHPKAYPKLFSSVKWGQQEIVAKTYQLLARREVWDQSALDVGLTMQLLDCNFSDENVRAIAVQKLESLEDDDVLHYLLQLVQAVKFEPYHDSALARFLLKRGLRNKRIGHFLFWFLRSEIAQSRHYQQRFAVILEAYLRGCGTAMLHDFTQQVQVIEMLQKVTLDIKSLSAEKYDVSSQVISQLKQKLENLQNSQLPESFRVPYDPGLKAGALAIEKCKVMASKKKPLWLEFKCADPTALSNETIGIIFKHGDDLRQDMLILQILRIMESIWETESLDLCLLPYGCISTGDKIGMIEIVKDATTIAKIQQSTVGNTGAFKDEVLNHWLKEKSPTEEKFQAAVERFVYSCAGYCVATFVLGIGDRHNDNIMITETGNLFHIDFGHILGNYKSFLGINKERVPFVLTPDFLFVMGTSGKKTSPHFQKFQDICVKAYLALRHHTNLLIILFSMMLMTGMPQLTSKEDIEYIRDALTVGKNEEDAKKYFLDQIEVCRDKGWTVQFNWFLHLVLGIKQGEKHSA
T1 sequence (Q8WYR1 whole entry partner, species assumed): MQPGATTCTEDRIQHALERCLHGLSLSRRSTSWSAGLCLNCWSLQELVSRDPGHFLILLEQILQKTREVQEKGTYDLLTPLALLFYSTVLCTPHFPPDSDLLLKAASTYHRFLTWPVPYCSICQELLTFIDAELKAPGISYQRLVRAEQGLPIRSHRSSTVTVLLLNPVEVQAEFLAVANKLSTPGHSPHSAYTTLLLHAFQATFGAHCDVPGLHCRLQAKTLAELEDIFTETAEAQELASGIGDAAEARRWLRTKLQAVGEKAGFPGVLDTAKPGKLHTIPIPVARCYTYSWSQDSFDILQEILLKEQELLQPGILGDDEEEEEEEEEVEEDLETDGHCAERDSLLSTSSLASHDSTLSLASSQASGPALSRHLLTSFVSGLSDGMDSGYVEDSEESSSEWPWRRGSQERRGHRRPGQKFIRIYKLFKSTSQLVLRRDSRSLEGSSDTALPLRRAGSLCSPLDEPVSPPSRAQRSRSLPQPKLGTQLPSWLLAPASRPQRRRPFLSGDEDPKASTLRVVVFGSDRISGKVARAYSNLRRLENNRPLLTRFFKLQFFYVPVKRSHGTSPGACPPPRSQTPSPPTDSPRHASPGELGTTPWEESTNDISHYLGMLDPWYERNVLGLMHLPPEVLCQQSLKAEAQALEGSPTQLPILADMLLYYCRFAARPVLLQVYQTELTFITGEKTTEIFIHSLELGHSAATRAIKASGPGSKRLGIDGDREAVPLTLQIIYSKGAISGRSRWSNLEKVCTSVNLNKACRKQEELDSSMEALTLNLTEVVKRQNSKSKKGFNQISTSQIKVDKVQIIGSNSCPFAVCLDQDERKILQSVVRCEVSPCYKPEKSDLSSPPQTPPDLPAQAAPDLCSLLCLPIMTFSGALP

| Compound | IC50 |
| --- | --- |
| CC(C)(O)c1cc(CN2C(=O)COc3ccc(C=C4SC(=O)NC4=O)cc32)ccc1F [Example 305, 5-{4-[4-Fluoro-3-(1-hydroxy-1-methyl-ethyl)-benzyl]-3-oxo-3,4-dihydro-2H-benzo[1,4]oxazin-6-ylmethylene}-thiazolidine-2,4-dione] | 16 nM |
| O=C1NC(=S)SC1=Cc1ccc2c(c1)N(Cc1ccc(S(=O)(=O)N3CCOCC3)cc1)C(=O)CO2 [Example 259, 4-[4-(Morpholine-4-sulfonyl)-benzyl]-6-(4-oxo-2-thioxo-thiazolidin-5-ylidenemethyl)-4H-1,4-benzoxazin-3-one] | 13 nM |
| C[C@@H]1Oc2ccc(C=C3SC(=S)NC3=O)cc2N(Cc2cc(C(C)(C)C)cc(C(C)(C)C)c2)C1=O [Example 37, (S)-4-(3,5-Di-tert-butyl-benzyl)-2-methyl-6-(4-oxo-2-thioxo-thiazolidin-5-ylidenemethyl)-4H-1,4-benzoxazin-3-one] | 1620 nM |
| O=C1NC(=O)C(=Cc2ccc3c(c2)N(Cc2ccccc2)C(=O)CO3)S1 [Example 202, 5-(4-Benzyl-3-oxo-3,4-dihydro-2H-1,4-benzoxazin-6-ylmethylene)-thiazolidine-2,4-dione] | 3 nM |
| O=C(O)CN1C(=O)COc2ccc(C=C3SC(=S)NC3=O)cc21 [Example 3, [3-Oxo-6-(4-oxo-2-thioxo-thiazolidin-5-ylidenemethyl)-2,3-dihydro-1,4-benzoxazin-4-yl]-acetic acid] | 635 nM |
| COc1cc(C=C2SC(=S)NC2=O)cc2c1OCC(=O)N2Cc1ccccc1 [Example 153, 4-Benzyl-8-methoxy-6-(4-oxo-2-thioxo-thiazolidin-5-ylidenemethyl)-4H-benzo[1,4]oxazin-3-one] | 96 nM |
| O=C1NC(=S)SC1=Cc1ccc2c(c1)N(Cc1ccccc1-c1ccccc1)C(=O)CO2 [Example 159, 4-Biphenyl-2-ylmethyl-6-(4-oxo-2-thioxo-thiazolidin-5-ylidenemethyl)-4H-1,4-benzoxazin-3-one] | 10 nM |
| CC(C)(C)c1cc(CO)cc(CN2C(=O)COc3ccc(C=C4SC(=S)NC4=O)cc32)c1 [Example 212, 4-(3-tert-Butyl-5-hydroxymethyl-benzyl)-6-(4-oxo-2-thioxo-thiazolidin-5-ylidenemethyl)-4H-1,4-benzoxazin-3-one] | 22 nM |
| O=C1NC(=S)SC1=Cc1ccc2c(c1)N(CCCc1ccccc1)C(=O)CO2 [Example 160, 6-(4-Oxo-2-thioxo-thiazolidin-5-ylidenemethyl)-4-(3-phenyl-propyl)-4H-1,4-benzoxazin-3-one] | 7 nM |
| O=C1NC(=S)SC1=Cc1ccc2c(c1)N(CC1CC1)C(=O)CO2 [Example 145, 4-Cyclopropylmethyl-6-(4-oxo-2-thioxo-thiazolidin-5-ylidenemethyl)-4H-benzo[1,4]oxazin-3-one] | 26 nM |
| O=C1NC(=S)SC1=Cc1ccc2c(c1)N(CCCc1cccc(Cl)c1Cl)C(=O)CO2 [Example 127, 4-[3-(2,3-Dichloro-phenyl)-propyl]-6-(4-oxo-2-thioxo-thiazolidin-5-ylidenemethyl)-4H-benzo[1,4]oxazin-3-one] | 43 nM |
| CC(C)(C)c1cc(CN2C(=O)COc3ccc(C=C4SC(=O)NC4=O)cc32)cc(C(C)(C)C)c1O [Example 219, 5-[4-(3,5-Di-tert-butyl-4-hydroxy-benzyl)-3-oxo-3,4-dihydro-2H-1,4-benzoxazin-6-ylmethylene]-thiazolidine-2,4-dione] | 6 nM |
| O=C1NC(=S)SC1=Cc1ccc2c(c1)N(Cc1ccc3ccccc3c1)C(=O)CO2 [Example 188, 4-Naphthalen-2-ylmethyl-6-(4-oxo-2-thioxo-thiazolidin-5-ylidenemethyl)-4H-1,4-benzoxazin-3-one] | 20 nM |
| CC(C)(O)c1cc(CN2C(=O)COc3ccc(C=C4SC(=S)NC4=O)cc32)ccc1Cl [Example 332, 4-[4-Chloro-3-(1-hydroxy-1-methyl-ethyl)-benzyl]-6-(4-oxo-2-thioxo-thiazolidin-5-ylidenemethyl)-4H-1,4-benzoxazin-3-one; compound with ethane-1,2-diamine] | 7 nM |
| O=C1NC(=S)SC1=Cc1ccc2c(c1)N(Cc1ccsc1)C(=O)CO2 [Example 146, 6-(4-Oxo-2-thioxo-thiazolidin-5-ylidenemethyl)-4-thiophen-3-ylmethyl-4H-benzo[1,4]oxazin-3-one] | 30 nM |
| Cc1cc(CN2C(=O)COc3ccc(C=C4SC(=S)NC4=O)cc32)cc(C)n1 [Example 229, 4-(2,6-Dimethyl-pyridin-4-ylmethyl)-6-(4-oxo-2-thioxo-thiazolidin-5-ylidenemethyl)-4H-1,4-benzoxazin-3-one] | 20 nM |
| C[C@@H]1Oc2ccc(C=C3SC(=S)NC3=O)cc2NC1=O [Example 13, (S)-2-Methyl-6-(4-oxo-2-thioxo-thiazolidin-5-ylidenemethyl)-4H-1,4-benzoxazin-3-one] | 745 nM |
| CC(C)(C)c1cc(CN2C(=O)CSc3ccc(C=C4SC(=S)NC4=O)cc32)cc(C(C)(C)C)c1 [Example 82, 4-(3,5-Di-tert-butyl-benzyl)-6-(4-oxo-2-thioxo-thiazolidin-5-ylidenemethyl)-4H-1,4-benzothiazin-3-one] | 3740 nM |
| CC(CN1C(=O)COc2ccc(C=C3SC(=S)NC3=O)cc21)c1ccccc1 (stereo not shown) [Example 173, 6-(4-Oxo-2-thioxo-thiazolidin-5-ylidenemethyl)-4-(2-phenyl-propyl)-4H-1,4-benzoxazin-3-one] | 39 nM |
| O=C1NC(=S)SC1=Cc1ccc2c(c1)N(Cc1cccnc1)C(=O)CO2 [Example 12, 6-(4-Oxo-2-thioxo-thiazolidin-5-ylidenemethyl)-4-pyridin-3-ylmethyl-4H-1,4-benzoxazin-3-one] | 27 nM |
| O=C1NC(=S)SC1=Cc1cc(F)c2c(c1)N(Cc1ccc(Cl)c(C(F)(F)F)c1)C(=O)CO2 [Example 233, 4-(4-Chloro-3-trifluoromethyl-benzyl)-8-fluoro-6-(4-oxo-2-thioxo-thiazolidin-5-ylidenemethyl)-4H-1,4-benzoxazin-3-one] | 35 nM |
| Cc1cc(CN2C(=O)COc3ccc(C=C4SC(=S)NC4=O)cc32)cc(C)c1CN1CCOCC1 [Example 39, 4-(3,5-Dimethyl-4-morpholin-4-ylmethyl-benzyl)-6-(4-oxo-2-thioxo-thiazolidin-5-ylidenemethyl)-4H-1,4-benzoxazin-3-one] | 335 nM |
| O=C1NC(=S)SC1=Cc1ccc2c(c1)N(Cc1ccncc1)C(=O)CO2 [Example 148, 6-(4-Oxo-2-thioxo-thiazolidin-5-ylidenemethyl)-4-pyridin-4-ylmethyl-4H-benzo[1,4]oxazin-3-one] | 61 nM |
| CC(C)(C)c1cc(CN2C(=O)COc3ccc(C=C4SC(=S)NC4=O)cc32)cc(C(C)(C)C)c1 [Example 32, 4-(3,5-Di-tert-butyl-benzyl)-6-(4-oxo-2-thioxo-thiazolidin-5-ylidenemethyl)-4H-1,4-benzoxazin-3-one] | 12 nM |
| Cn1nc(C(C)(C)C)cc1CN1C(=O)COc2ccc(C=C3SC(=S)NC3=O)cc21 [Example 128, 4-(5-tert-Butyl-2-methyl-2H-pyrazol-3-ylmethyl)-6-(4-oxo-2-thioxo-thiazolidin-5-ylidenemethyl)-4H-benzo[1,4]oxazin-3-one] | 180 nM |
| O=C1NC(=S)S/C1=C\c1ccc2c(c1)N(Cc1ccc(C(=O)O)cc1)C(=O)CO2 [Example 288, 4-{3-oxo-6-[4-oxo-2-thioxo-thiazolidin-(5Z)-ylidenemethyl]-2,3-dihydro-benzo[1,4]oxazin-4-ylmethyl}-benzoic acid; Compound with ethane-1,2-diamine] | 35 nM |
| O=C1NC(=S)SC1=Cc1cc(Cl)c2c(c1)N(Cc1ccc(CN3CCOCC3)cc1)C(=O)CO2 [Example 80, 8-Chloro-4-(4-morpholin-4-ylmethyl-benzyl)-6-(4-oxo-2-thioxo-thiazolidin-5-ylidenemethyl)-4H-1,4-benzoxazin-3-one] | 17 nM |
| Cc1cc(C)cc(CCN2C(=O)COc3ccc(C=C4SC(=S)NC4=O)cc32)c1 [Example 30, 4-[2-(3,5-Dimethylphenyl)-ethyl]-6-(4-oxo-2-thioxo-thiazolidin-5-ylidenemethyl)-4H-1,4-benzoxazin-3-one] | 2 nM |

Source: patent publication US7205295B2, “Benzoxazin-3-ones and derivatives thereof as therapeutic agents” (Warner-Lambert Company LLC, priority 2002, dated 2007)
